These results are taken from paper PMC6207618, “The GbsR Family of Transcriptional Regulators: Functional Characterization of the OpuAR Repressor” (Frontiers in Microbiology, 2018).

In one test the target is OpuAR (Bacillus infantis, UniProt U5LJR5). Briefly: Intrinsic tryptophan fluorescence ligand binding, purified OpuAR (wild type). As for the experimental part:
Overproduction of the OpuAR repressor protein and its mutant derivatives was carried out in the E. coli B strain BL21 harboring plasmid pMP_AR1, a derivative of the expression vector pASK-IBA3plus (IBA, Göttingen, Germany) (Supplementary Table S3). […] De-repression of P-tet promoter activity is achieved by adding the synthetic inducer AHT to the growth medium. Cultures of the E. coli B. strain BL21 (pMP_AR1) were inoculated (to a OD578 of 0.1) from pre-cultures prepared in MMA ([Miller, 1972]) supplemented with 0.5% glucose (wt/vol) as the carbon source, 0.5% casamino acids (wt/vol), 1 mg l^-1 thiamine, and 1 mM MgSO4. The cultures also contained ampicillin (100 μg ml^-1) to select for the presence of plasmid pMP_AR1 (or its mutant derivatives) and they were grown at 37°C. When the main cultures reached an OD578 of 0.5, enhanced expression of the opuAR gene from P-tet was induced by the addition of AHT to a final concentration of 0.2-μg ml^-1. Cells were grown for an additional 2 h, before they were harvested by centrifugation (at 4°C at 4,800 × g for 20 min). […]
(§1) The dissociation constants of OpuAR for choline and glycine betaine were determined by intrinsic tryptophan fluorescence spectroscopy as described previously using a Carry Eclips fluorescence spectrometer (Varian, Surry, United Kingdom) ([Pittelkow et al., 2011]; [Nau-Wagner et al., 2012]).

The target in a further test is B. subtilis GbsR protein. The arrangement: method as in Nau-Wagner et al., 2012. The note with it: purified B. subtilis GbsR, ref Nau-Wagner et al., 2012, cited from earlier work.
The target in a further test is OpuAR Y^94F (Bacillus infantis, UniProt U5LJR5, Y94F). As to the kind of experiment: biochemical. The test is classed as binding.
Chain of OpuAR Y^94F (U5LJR5 entry or part of it Y94F): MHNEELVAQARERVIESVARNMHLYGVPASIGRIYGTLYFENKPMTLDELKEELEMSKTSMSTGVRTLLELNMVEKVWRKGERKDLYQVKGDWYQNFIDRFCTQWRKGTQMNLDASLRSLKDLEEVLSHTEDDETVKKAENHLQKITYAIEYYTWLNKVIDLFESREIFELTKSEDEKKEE
From the text: (§2) The coding region of opuAR was amplified from chromosomal DNA of B. infantis NRRL B-14911 ([Massilamany et al., 2016]) using primers opuAR fwd and opuAR rev (Supplementary Table S2) harboring in their 5′-regions recognition sites for the restriction enzyme BsaI. The resulting PCR DNA fragment was then cut with BsaI and cloned into the expression vector pASK-IBA3plus (IBA, Göttingen, Germany) that had been linearized with BsaI; the obtained plasmids were named pMP_AR1 (Supplementary Table S3). Mutant derivatives of the opuAR gene were obtained using the Q5 Site-Directed Mutagenesis Kit (New England BioLabs, Ipswich, MA, United States) and a set of customized mutagenic primers (Supplementary Table S2). The Sanger sequencing method was used to verify the DNA sequence of the chromosomal insert of the parental opuAR^+ overexpression plasmid pMP_AR1 and of its derivatives carrying mutant opuAR genes. DNA sequencing was conducted by Microsynth (Lindau, Germany).
(§3) Overproduction of the OpuAR repressor protein and its mutant derivatives was carried out in the E. coli B strain BL21 harboring plasmid pMP_AR1, a derivative of the expression vector pASK-IBA3plus (IBA, Göttingen, Germany) (Supplementary Table S3). […] De-repression of P-tet promoter activity is achieved by adding the synthetic inducer AHT to the growth medium. Cultures of the E. coli B. strain BL21 (pMP_AR1) were inoculated (to a OD578 of 0.1) from pre-cultures prepared in MMA ([Miller, 1972]) supplemented with 0.5% glucose (wt/vol) as the carbon source, 0.5% casamino acids (wt/vol), 1 mg l^-1 thiamine, and 1 mM MgSO4. The cultures also contained ampicillin (100 μg ml^-1) to select for the presence of plasmid pMP_AR1 (or its mutant derivatives) and they were grown at 37°C. When the main cultures reached an OD578 of 0.5, enhanced expression of the opuAR gene from P-tet was induced by the addition of AHT to a final concentration of 0.2-μg ml^-1. Cells were grown for an additional 2 h, before they were harvested by centrifugation (at 4°C at 4,800 × g for 20 min). The cell pellets were re-suspended in lysis buffer [100 mM Tris-HCl (pH 7.5), 2.5% glycerol, 2 mM dithiothreitol, 0.4 mM EDTA, 0.5 mM phenylmethylsulfonyl fluoride (PMSF), 0.5 mM benzamidine] and the cells were then disrupted by passing them through a French pressure cell as detailed previously ([Nau-Wagner et al., 2012]). Cleared cell lysates were prepared by ultra-centrifugation (at 4°C at 100,000 × g for 35 min) before the OpuAR-Strep-tag II recombinant protein was purified by affinity chromatography ([Nau-Wagner et al., 2012]) on streptactin affinity resin according to the manufacturers specifications (IBA, Göttingen, Germany). Mutant derivatives of the OpuAR protein were overproduced and purified as described above for the wild-type protein.
as §1

For a further test, the target named is OpuAR N^96F (Bacillus infantis, UniProt U5LJR5, N96F). As to the kind of experiment: biochemical. The test is classed as binding.
Chain of OpuAR N^96F (U5LJR5 entry or part of it N96F): as the sequence (U5LJR5 entry or part of it Y94F) above
From the text: as §2, §3, §1

Another test concerns the target OpuAR R^100F (Bacillus infantis, UniProt U5LJR5, R100F). As to the kind of experiment: biochemical. The class given is binding.
From the text: as §2, §3, §1

A further test has as its target OpuAR Y^94F/R^100F (Bacillus infantis, UniProt U5LJR5, R100F/Y94F). Briefly: biochemical. The class given is binding. The settings on record: for Improvement of binding (Kd) relative to wild-type OpuAR: OpuAR double variant Y94F/R100F vs wild type.
From the text: as §2, §3, §1

The target in another test is OpuAR W^93F (Bacillus infantis, UniProt U5LJR5, W93F). As to the kind of experiment: biochemical. The class given is binding.
Chain of OpuAR W^93F (U5LJR5 entry or part of it W93F): as the sequence (U5LJR5 entry or part of it Y94F) above
From the text: as §2, §3, §1

The next test relates to B. infantis NRRL B-14911. As to the kind of experiment: Growth of B. infantis with glycine betaine as sole carbon source. The test is classed as cell-based, Bacillus infantis. The note with it: basal medium, 33.24 mM as sole carbon source, 46 h, 37°C. As for the experimental part:
Supplementary Figure S7 │B. infantis cannot use glycine betaine as carbon source.
Cultures of B. infantis NRRL B-14911were grown in basal medium supplemented with either glucose (27.7 mM final concentration) or glycine betaine (33.24 mM final concentration) as the sole carbon source. Growth yields were measured after 46 hours of incubation at 37 °C.
Cultures without the addition of a carbon source served as control.
(1 picture or pasted object on this page, not shown here)

In test [1] the test system is opuAA-treA reporter activity. Briefly: opuAA-treA reporter fusion TreA enzyme activity assay. The class given is cell-based, Bacillus subtilis. The settings on record: strain STHB10, SMM with 1.2 M NaCl, dose-response 5 to 300 μM.

Structures are written as SMILES. Like-named read-outs stand apart in the source and are kept apart here.

Chain of OpuAR Y^94F/R^100F (U5LJR5 entry or part of it Y94F/R100F): as the sequence (U5LJR5 entry or part of it Y94F) above
Chain of OpuAR (U5LJR5 entry or part of it): as the sequence (U5LJR5 entry or part of it Y94F) above
Chain of OpuAR R^100F (U5LJR5 entry or part of it R100F): as the sequence (U5LJR5 entry or part of it Y94F) above

`C[N+](C)(C)CCO` [choline]: the Kd is 193 ± 40 µM at OpuAR; 165 ± 15 µM at B. subtilis GbsR protein (intrinsic Trp-fluorescence); 240 ± 33 µM on OpuAR Y^94F; 262 ± 34 µM on OpuAR N^96F; 100 ± 15 µM at OpuAR R^100F; 61 ± 11 µM at OpuAR Y^94F/R^100F. The Kd on OpuAR W^93F came out at 210 ± 33 µM. The “Improvement of binding (Kd) relative to wild-type OpuAR” value on OpuAR Y^94F/R^100F is reported as “about threefold”.
Consider `C[N+](C)(C)CC(=O)[O-]` [glycine betaine], for which the Kd on OpuAR (purified OpuAR-Strep-tag II wild type, 5 μM protein, read-out: Kd) was 301 ± 24 µM; on OpuAR Y^94F (OpuAR variant Y94F, read-out: Kd), 293 ± 37 µM; on OpuAR N^96F (OpuAR variant N96F, read-out: Kd), 254 ± 39 µM; at OpuAR R^100F (OpuAR variant R100F, read-out: Kd), 303 ± 40 µM; on OpuAR Y^94F/R^100F (OpuAR double variant Y94F/R100F, read-out: Kd), 70 ± 12 µM; on OpuAR W^93F (OpuAR variant W93F, read-out: Kd) it was 224 ± 24 µM. In the test on B. infantis NRRL B-14911, the “Use as carbon source / nutrient (growth yield)” value was “cannot use”. Also, the “Binding by GbsR” value with B. subtilis GbsR protein is listed as “does not bind”. In addition, at OpuAR Y^94F/R^100F, the “Improvement of binding (Kd) relative to wild-type OpuAR” value is listed as “fourfold”. In addition, the “Concentration in growth medium triggering a noticeable increase in transcriptional activity” value in [1] is 5 µM. For the same molecule, in test [1], the “Concentration sufficient to fully induce expression of the reporter fusion” value came to 75 µM.
